Results on 28 molecules are retold here after patent publication US11524938B2, “Aromatic sulfonamide derivatives” (Bayer Pharma Aktiengesellschaft, priority 2016, dated 2022).

The assay deals with T1, human P2X4 (Homo sapiens, UniProt Q99571).
T1 sequence (Q99571 1-388): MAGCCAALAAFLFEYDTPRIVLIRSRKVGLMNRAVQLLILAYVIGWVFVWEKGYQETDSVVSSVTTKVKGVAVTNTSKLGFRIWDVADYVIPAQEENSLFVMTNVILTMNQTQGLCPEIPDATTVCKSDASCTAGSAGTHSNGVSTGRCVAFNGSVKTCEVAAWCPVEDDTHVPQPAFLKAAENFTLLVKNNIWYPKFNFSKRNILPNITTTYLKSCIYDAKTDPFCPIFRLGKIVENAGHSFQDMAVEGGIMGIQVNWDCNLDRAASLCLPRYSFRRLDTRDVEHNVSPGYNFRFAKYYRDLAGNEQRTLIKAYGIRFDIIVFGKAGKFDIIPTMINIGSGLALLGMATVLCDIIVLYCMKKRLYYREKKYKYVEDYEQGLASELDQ
Kind of assay: Human P2X4 HEK Cell FLIPR Assay. The class given is cell-based. As to conditions: agonist Bz-ATP at EC80; for Emax: HEK293, HEK293 cells, percentage of maximal inhibition, read-out: Human P2X4 HEK Cells (FLIPR Assay) avg Efficacy [%]; for IC50: HEK293 cells, individual values listed where some fall outside detection range. Summed up: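 HEK293 cells stably expressing human P2X4, Fluo8-AM loaded 30 min at 37° C, then compound 30 min at room temperature (0.5% DMSO, pH 7.4 buffer with 1.8 mM CaCl2). Bz-ATP at its daily-determined EC80 added; calcium fluorescence read over 120 sec; IC50 from peak RFU normalized to agonist control, triplicates.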

“And” between values parts separate entries of the source, which are not always exact repeats. Equal values may be shown once. Some results are limits rather than exact numbers.

One may read the IC50 as the point on the concentration scale where inhibition reaches its midpoint. A lower IC50 goes with greater potency in that assay. Take `COc1ccc(CC(=O)Nc2ccc(-c3ccc(Cl)nc3)c(S(N)(=O)=O)c2)c(F)c1` [Example 472, N-[4-(6-Chloropyridin-3-yl)-3-sulfamoylphenyl]-2-(2-fluoro-4-methoxyphenyl)acetamide]: the Emax came out at 97% and the IC50 came to 197 nM.
In the same order, the values of `NS(=O)(=O)c1cc(NC(=O)Cc2ccc(C(F)F)cc2)ccc1-c1ccc(Cl)nc1` [Example 473, N-[4-(6-Chloropyridin-3-yl)-3-sulfamoylphenyl]-2-[4-(difluoromethyl)phenyl]acetamide] are 93% and 530 nM.
As to `NS(=O)(=O)c1cc(NC(=O)Cc2ccc(C(F)(F)F)cc2Cl)ccc1-c1ccc(Cl)nc1` [Example 474, N-[4-(6-Chloropyridin-3-yl)-3-sulfamoylphenyl]-2-[2-chloro-4-(trifluoromethyl)phenyl]acetamide], the Emax worked out at 93% and the IC50 was found to be 323 nM.
In the same order, the values of `NS(=O)(=O)c1cc(NC(=O)Cc2ccc(Cl)cc2Cl)ccc1-c1cncc(F)c1` [Example 475, 2-(2,4-Dichlorophenyl)-N-[4-(5-fluoropyridin-3-yl)-3-sulfamoylphenyl]acetamide] are 88% and 64 nM.
Taken in the same sequence, the figures for `Cc1ccc(CC(=O)Nc2ccc(-c3cncc(F)c3)c(S(N)(=O)=O)c2)c(F)c1` [Example 476, 2-(2-Fluoro-4-methylphenyl)-N-[4-(5-fluoropyridin-3-yl)-3-sulfamoylphenyl]acetamide] were 89% and 58 nM.
Taken in the same sequence, the figures for `NS(=O)(=O)c1cc(NC(=O)Cc2ccc(C(F)F)cc2)ccc1-c1cncc(F)c1` [Example 477, 2-[4-(Difluoromethyl)phenyl]-N-[4-(5-fluoropyridin-3-yl)-3-sulfamoylphenyl]acetamide] were 91% and 259 nM.
`NS(=O)(=O)c1cc(NC(=O)Cc2ccccc2Cl)ccc1-n1cc(C2CC2)cn1` [Example 478, 2-(2-Chlorophenyl)-N-[4-(4-cyclopropyl-1H-pyrazol-1-yl)-3-sulfamoylphenyl]acetamide]: the Emax was 82% and the IC50 turned out to be 47 nM.
For the molecule `NS(=O)(=O)c1cc(NC(=O)Cc2ccccc2F)ccc1-n1nc2cc(F)cc(F)c2n1` [Example 479, N-[4-(4,6-Difluoro-2H-benzotriazol-2-yl)-3-sulfamoylphenyl]-2-(2-fluorophenyl)acetamide], the Emax was 79% and the IC50 stood at 145 nM.
Taken in the same sequence, the figures for `NS(=O)(=O)c1cc(NC(=O)Cc2ccccc2F)ccc1-n1nnc2c(F)cc(F)cc21` [Example 480, N-[4-(4,6-Difluoro-1H-benzotriazol-1-yl)-3-sulfamoylphenyl]-2-(2-fluorophenyl)acetamide] were 105% and 125 nM.
Consider `NS(=O)(=O)c1cc(NC(=O)Cc2ccccc2Cl)ccc1-n1nnc2c(F)cc(F)cc21` [Example 481, 2-(2-Chlorophenyl)-N-[4-(4,6-difluoro-1H-benzotriazol-1-yl)-3-sulfamoylphenyl]acetamide], for which the Emax was determined as 103% and the IC50 was 50 nM.
For the molecule `NS(=O)(=O)c1cc(NC(=O)Cc2ccccc2Cl)ccc1-n1nc2cc(F)cc(F)c2n1` [Example 482, 2-(2-Chlorophenyl)-N-[4-(4,6-difluoro-2H-benzotriazol-2-yl)-3-sulfamoylphenyl]acetamide], the Emax came to 73% and the IC50 was found to be 2340 nM.
Taken in the same sequence, the figures for `NS(=O)(=O)c1cc(NC(=O)Cc2ccccc2Cl)ccc1-c1cnc(C(F)(F)F)s1` [Example 483, 2-(2-Chlorophenyl)-N-{3-sulfamoyl-4-[2-(trifluoromethyl)-1,3-thiazol-5-yl]phenyl}acetamide] were 86% and 71 nM.
Turning to `N#Cc1cnn(-c2cc(C(F)(F)F)c(NC(=O)Cc3ccccc3Cl)cc2S(N)(=O)=O)c1` [Example 484, 2-(2-Chlorophenyl)-N-[4-(4-cyano-1H-pyrazol-1-yl)-5-sulfamoyl-2-(trifluoromethyl)phenyl]acetamide], the Emax is 63% and the IC50 came out at 401 nM.
Taken in the same sequence, the figures for `N#Cc1cnn(-c2ccc(NC(=O)Cc3cc(C(F)(F)F)ccc3Cl)cc2S(N)(=O)=O)c1` [Example 485, 2-[2-Chloro-5-(trifluoromethyl)phenyl]-N-[4-(4-cyano-1H-pyrazol-1-yl)-3-sulfamoylphenyl]acetamide] were 100% and 128 nM.
`N#Cc1cnn(-c2cc(C(F)(F)F)c(NC(=O)Cc3cc(C(F)(F)F)ccc3Cl)cc2S(N)(=O)=O)c1` [Example 486, 2-[2-Chloro-5-(trifluoromethyl)phenyl]-N-[4-(4-cyano-1H-pyrazol-1-yl)-5-sulfamoyl-2-(trifluoromethyl)phenyl]acetamide]: the Emax was determined as 71% and the IC50 amounted to 7340 nM.
Taken in the same sequence, the figures for `N#Cc1cnn(-c2ccc(NC(=O)Cc3ccccc3Cl)c(C(F)(F)F)c2S(N)(=O)=O)c1` [Example 487, 2-(2-Chlorophenyl)-N-[4-(4-cyano-1H-pyrazol-1-yl)-3-sulfamoyl-2-(trifluoromethyl)phenyl]acetamide] were 45% and above 25000 nM.
`N#Cc1cnn(-c2cc(C(F)(F)F)c(NC(=O)Cc3cccc(C(F)(F)F)c3Cl)cc2S(N)(=O)=O)c1` [Example 488, 2-[2-Chloro-3-(trifluoromethyl)phenyl]-N-[4-(4-cyano-1H-pyrazol-1-yl)-5-sulfamoyl-2-(trifluoromethyl)phenyl]acetamide]: the Emax was 78% and the IC50 was determined as 2330 nM.
Regarding `NS(=O)(=O)c1c(-c2cnn(C(F)F)c2)ccc(NC(=O)Cc2ccccc2Cl)c1C(F)(F)F` [Example 489, 2-(2-Chlorophenyl)-N-{4-[1-(difluoromethyl)-1H-pyrazol-4-yl]-3-sulfamoyl-2-(trifluoromethyl)phenyl}acetamide], the Emax is 83% and the IC50 came to 2060 nM.
In the same order, the values of `NS(=O)(=O)c1cc(NC(=O)Cc2cccc(C(F)(F)F)c2Cl)ccc1-c1cnn(C(F)F)c1` [Example 490, 2-[2-Chloro-3-(trifluoromethyl)phenyl]-N-{4-[1-(difluoromethyl)-1H-pyrazol-4-yl]-3-sulfamoylphenyl}acetamide] are 95% and 91 nM.
In the same order, the values of `NS(=O)(=O)c1cc(NC(=O)Cc2ccccc2Cl)c(C(F)(F)F)cc1-c1cnn(C(F)F)c1` [Example 491, 2-(2-Chlorophenyl)-N-{4-[1-(difluoromethyl)-1H-pyrazol-4-yl]-5-sulfamoyl-2-(trifluoromethyl)phenyl}acetamide] are 67% and 9090 nM.
With `NS(=O)(=O)c1cc(NC(=O)Cc2ccccc2Cl)ccc1-c1cnn(C(F)F)c1C(F)(F)F` [Example 492, 2-(2-Chlorophenyl)-N-{4-[1-(difluoromethyl)-5-(trifluoromethyl)-1H-pyrazol-4-yl]-3-sulfamoylphenyl}acetamide], the Emax amounted to 92% and the IC50 was 531 nM.
`NS(=O)(=O)c1c(-c2cnn(C(F)F)c2)ccc(NC(=O)Cc2ccccc2Cl)c1F` [Example 493, 2-(2-Chlorophenyl)-N-{4-[1-(difluoromethyl)-1H-pyrazol-4-yl]-2-fluoro-3-sulfamoylphenyl}acetamide]: the Emax stood at 90% and the IC50 was 228 nM.
`NS(=O)(=O)c1cc(NC(=O)Cc2ccccc2Cl)c(F)cc1-c1cnn(C(F)F)c1` [Example 494, 2-(2-Chlorophenyl)-N-{4-[1-(difluoromethyl)-1H-pyrazol-4-yl]-2-fluoro-5-sulfamoylphenyl}acetamide]: the Emax stood at 94% and the IC50 turned out to be 205 nM.
In the same order, the values of `CN(C)c1nc(-c2ccc(NC(=O)Cc3ccccc3Cl)cc2S(N)(=O)=O)cs1` [Example 495, 2-(2-Chlorophenyl)-N-{4-[2-(dimethylamino)-1,3-thiazol-4-yl]-3-sulfamoylphenyl}acetamide] are 75% and 128 nM.
Taken in the same sequence, the figures for `NS(=O)(=O)c1cc(NC(=O)Cc2ccccc2Cl)ccc1-c1ccns1` [Example 496, 2-(2-Chlorophenyl)-N-[3-sulfamoyl-4-(1,2-thiazol-5-yl)phenyl]acetamide] were 87% and 22 nM.
Taken in the same sequence, the figures for `CN(C(=O)c1cnn(-c2ccc(NC(=O)Cc3ccccc3Cl)cc2S(N)(=O)=O)c1)C1CC1` [Example 497, 1-(4-{[(2-Chlorophenyl)acetyl]amino}-2-sulfamoylphenyl)-N-cyclopropyl-N-methyl-1H-pyrazole-4-carboxamide] were 97% and 54 nM.
Take `NS(=O)(=O)c1cc(NC(=O)C(O)c2ccccc2Cl)ccc1-n1cc(C(F)(F)F)cn1` (centres unmarked) [Example 498, 2-(2-Chlorophenyl)-2-hydroxy-N-{3-sulfamoyl-4-[4-(trifluoromethyl)-1H-pyrazol-1-yl]phenyl}ethanamide]: the Emax amounted to 50%; the IC50 was 18200 nM and > 25000 nM.
On to `NS(=O)(=O)c1cc(NC(=O)Cc2ccccc2Cl)cc(Cl)c1-n1cc(C(F)(F)F)cn1` [Example 499, 2-(2-Chlorophenyl)-N-{3-chloro-5-sulfamoyl-4-[4-(trifluoromethyl)-1H-pyrazol-1-yl]phenyl}acetamide], for which the Emax was found to be 69% and the half-maximal inhibitory concentration (IC50) was 347 nM.
